Reference: ChEMBL document CHEMBL1201862, “PubChem BioAssay data set” (2004)
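Results reflect a 48-hour exposure of cells in 96-well plates to compound at five concentrations. Abbreviation: GI50, concentration required for 50% inhibition of growth.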 Activity calls are given as the source filed them. Rule as the data show it: active = GI50 up to about 1.1 µM and inactive = higher.

Assays:
Assay in all cases: inhibition of tumour cell growth, NCI panel, 48 h
[1] = test system: OVCAR-4
[2] = test system: A549
[3] = test system: LOX IMVI
[4] = test system: SR
[5] = test system: HCT-116
[6] = test system: SK-MEL-5
[7] = test system: OVCAR-8
[8] = test system: Hs-578T
[9] = test system: 786-0
[10] = test system: SK-OV-3
[11] = test system: NCI-H460
[12] = test system: KM12
[13] = test system: Malme-3M
[14] = test system: RPMI-8226
[15] = test system: IGROV-1
[16] = test system: BT-549
[17] = test system: SF-268
[18] = test system: CAKI-1
[19] = test system: SW-620
[20] = test system: OVCAR-3

Row | Structure (SMILES) | GI50 [1] | GI50 [2] | GI50 [3] | GI50 [4] | GI50 [5] | GI50 [6] | GI50 [7] | GI50 [8] | GI50 [9] | GI50 [10] | GI50 [11] | GI50 [12] | GI50 [13] | GI50 [14] | GI50 [15] | GI50 [16] | GI50 [17] | GI50 [18] | GI50 [19] | GI50 [20]
1 | CCC1c2[nH]c3ccccc3c2C[C@H]2C(=O)NC(CCCCNC(=O)OC(C)(C)C)C(=O)N12 (some centres not stated) | 28.2 µM (inactive) | 34.3 µM (inactive) | 24.8 µM (inactive) | 24.8 µM (inactive) | 26.1 µM (inactive) | 20.7 µM (inactive) | 33 µM (inactive) | 19.7 µM (inactive) | 22.2 µM (inactive) | 55.8 µM (inactive) | 30.1 µM (inactive) | 18.5 µM (inactive) | 18 µM (inactive) | 24.5 µM (inactive) | 36.1 µM (inactive) | 24.1 µM (inactive) | 45.1 µM (inactive) | 25.9 µM (inactive) | 47.2 µM (inactive) | 18.4 µM (inactive)
2 | COC(=O)c1c(C)nc(C)c(NO)c1-c1ccccc1C(F)(F)F | 20 µM (inactive) | > 100 µM (inactive) | 38.3 µM (inactive) | 30.2 µM (inactive) | 16.3 µM (inactive) | 41.7 µM (inactive) | 18.5 µM (inactive) | 62.4 µM (inactive) | 16.4 µM (inactive) | > 100 µM (inactive) | > 100 µM (inactive) | 34.7 µM (inactive) | 16.9 µM (inactive) | 15.1 µM (inactive) | 18.8 µM (inactive) | 16.7 µM (inactive) | 41.4 µM (inactive) | 16.2 µM (inactive) | 16 µM (inactive) | 16.7 µM (inactive)
3 | O=C1Nc2ccccc2/C1=N/Nc1ccc([N+](=O)[O-])cc1 | 14.4 µM (inactive) | 24.4 µM (inactive) | 21.5 µM (inactive) | 1.46 µM (inactive) | 20.7 µM (inactive) | 35.6 µM (inactive) | 11.5 µM (inactive) | 9.06 µM (inactive) | 13.8 µM (inactive) | 24.2 µM (inactive) | 30.1 µM (inactive) | 20.2 µM (inactive) | 17.4 µM (inactive) | 24.8 µM (inactive) | 14.6 µM (inactive) | 16.5 µM (inactive) | 10.4 µM (inactive) | 15.5 µM (inactive) | 33.5 µM (inactive) | 13.6 µM (inactive)
4 | CCOC(=O)/C=C/C1OC(C)(C)OC1/C=C/C(=O)OCC (configuration not stated) | 32.4 µM (inactive) | 40.9 µM (inactive) | 27 µM (inactive) | 15.1 µM (inactive) | 30.8 µM (inactive) | 38.4 µM (inactive) | 25.5 µM (inactive) | 37.8 µM (inactive) | 32.2 µM (inactive) | > 100 µM (inactive) | 21.2 µM (inactive) | 25.4 µM (inactive) | 39.8 µM (inactive) | 24.8 µM (inactive) | 31.3 µM (inactive) | 54.8 µM (inactive) | 41.4 µM (inactive) | 20.8 µM (inactive) | 19.7 µM (inactive) | 
5 | COc1ccc2c(c1)CCc1c-2n(CCN(C)C)c2ccc(OC)cc12 | 25.4 µM (inactive) | 15 µM (inactive) | 7.89 µM (inactive) | 3.95 µM (inactive) | 5.33 µM (inactive) | 12.4 µM (inactive) | 20.7 µM (inactive) | 21.4 µM (inactive) | 27.2 µM (inactive) | 25.9 µM (inactive) | 30.4 µM (inactive) | 7.53 µM (inactive) | 19.7 µM (inactive) | 4.92 µM (inactive) | 18.7 µM (inactive) | 29.1 µM (inactive) | 22.6 µM (inactive) | 22.1 µM (inactive) | 5.37 µM (inactive) | 31 µM (inactive)
6 | CC(C)(C)OC(=O)N1C(C2=COc3ccccc3O2)=COc2cccnc21 | 1.6 µM (inactive) | 1.98 µM (inactive) | 1.74 µM (inactive) | 2.18 µM (inactive) | 1.99 µM (inactive) | 1.75 µM (inactive) | 1.9 µM (inactive) | 3.64 µM (inactive) | 1.83 µM (inactive) | 1.81 µM (inactive) | 1.74 µM (inactive) | 1.78 µM (inactive) | 1.45 µM (inactive) | 1.55 µM (inactive) | 1.62 µM (inactive) | 1.59 µM (inactive) | 1.5 µM (inactive) | 2.13 µM (inactive) | 2.01 µM (inactive) | 1.72 µM (inactive)
7 | C1COC(NC(C2CC2)C2CC2)=N1 [RILMENIDINE] | > 100 µM (inactive) | > 100 µM (inactive) | > 100 µM (inactive) | > 100 µM (inactive) | > 100 µM (inactive) | > 100 µM (inactive) | > 100 µM (inactive) | > 100 µM (inactive) | > 100 µM (inactive) | > 100 µM (inactive) | > 100 µM (inactive) | > 100 µM (inactive) | > 100 µM (inactive) | > 100 µM (inactive) | > 100 µM (inactive) | > 100 µM (inactive) |  | > 100 µM (inactive) | > 100 µM (inactive) | > 100 µM (inactive)
8 | N#CSC#Cc1ccc(C#CSC#N)cc1 | 8.81 µM (inactive) | 17.8 µM (inactive) | 16.3 µM (inactive) | 51.5 µM (inactive) | 19 µM (inactive) | 18.2 µM (inactive) | 19.6 µM (inactive) | 15.7 µM (inactive) | 17.2 µM (inactive) | 22.6 µM (inactive) | 19.9 µM (inactive) | 19.4 µM (inactive) | 19.1 µM (inactive) | > 100 µM (inactive) | 15.5 µM (inactive) | 17.9 µM (inactive) | 21.5 µM (inactive) | 16.1 µM (inactive) | 19.2 µM (inactive) | 19.3 µM (inactive)
9 | Cc1cnc2nc(-c3ccc(Cl)cc3)cc(O)c2c1 | 19.1 µM (inactive) | 5.05 µM (inactive) | 4.63 µM (inactive) | 0.598 µM (active) | 3.84 µM (inactive) | 2.49 µM (inactive) | 9.14 µM (inactive) | 6.7 µM (inactive) | 6.17 µM (inactive) | 18.4 µM (inactive) | 3.47 µM (inactive) | 3.76 µM (inactive) | 8.61 µM (inactive) | 3.88 µM (inactive) | 5.66 µM (inactive) | 9.95 µM (inactive) | 19.7 µM (inactive) | 5.33 µM (inactive) | 4.06 µM (inactive) | 2.95 µM (inactive)
10 | C=CC/N=C(\S)Nc1sc2c(c1C(=O)OCC)CC(C)CC2 (configuration not stated) | 35.2 µM (inactive) | 24.8 µM (inactive) | 32.9 µM (inactive) | 18.9 µM (inactive) | 24.8 µM (inactive) | 16.3 µM (inactive) | 36.7 µM (inactive) | 36.6 µM (inactive) | 33.9 µM (inactive) | 25.4 µM (inactive) | 20.8 µM (inactive) | 34.8 µM (inactive) | 21.3 µM (inactive) | 23.1 µM (inactive) | 33.3 µM (inactive) | 35.6 µM (inactive) | 35 µM (inactive) | 36.1 µM (inactive) | 32.8 µM (inactive) | 20.3 µM (inactive)
11 | C=O.NNCCc1n[nH]c(=O)n1N | > 100 µM (inactive) | > 100 µM (inactive) | > 100 µM (inactive) | > 100 µM (inactive) | > 100 µM (inactive) | > 100 µM (inactive) | > 100 µM (inactive) | > 100 µM (inactive) | > 100 µM (inactive) | > 100 µM (inactive) | > 100 µM (inactive) | > 100 µM (inactive) | > 100 µM (inactive) | > 100 µM (inactive) | > 100 µM (inactive) | > 100 µM (inactive) | > 100 µM (inactive) | > 100 µM (inactive) | > 100 µM (inactive) | > 100 µM (inactive)
12 | CC(=O)N1C=Cc2c(c(C)c3c([nH]c4ccccc43)c2C)C1 | 2.13 µM (inactive) | 4.54 µM (inactive) | 4.07 µM (inactive) | 34.2 µM (inactive) | 1.53 µM (inactive) | 13.8 µM (inactive) | 6.03 µM (inactive) | 3.62 µM (inactive) | 2.41 µM (inactive) | 13.6 µM (inactive) | 1.23 µM (inactive) | 2.9 µM (inactive) | 7.53 µM (inactive) | 14.7 µM (inactive) | 3.76 µM (inactive) | 3.33 µM (inactive) | 7.4 µM (inactive) | 10.1 µM (inactive) | 2.51 µM (inactive) | 1.74 µM (inactive)
13 | O=C1C(Cl)=C(N2CCN(C3=C(Cl)C(=O)c4ccccc4C3=O)CC2)C(=O)c2ccccc21 | 1.58 µM (inactive) | 12.1 µM (inactive) | 1.71 µM (inactive) | 0.179 µM (active) | 1.44 µM (inactive) | 1.79 µM (inactive) | 1.69 µM (inactive) | 2.22 µM (inactive) | 1.82 µM (inactive) | 14.1 µM (inactive) | 3.54 µM (inactive) | 4.81 µM (inactive) | 1.91 µM (inactive) | 0.436 µM (active) | 1.91 µM (inactive) | 1.73 µM (inactive) | 2.62 µM (inactive) | 1.79 µM (inactive) | 1.17 µM (inactive) | 1.6 µM (inactive)
14 | COc1cc(C)c2c(c1C=O)Oc1c(c(C)c(O)c3c1C(O)OC3=O)OC2=O (configuration not stated) [STICTIC ACID] | 25.5 µM (inactive) | > 100 µM (inactive) | 28.4 µM (inactive) | 16 µM (inactive) | 36.8 µM (inactive) | 20.2 µM (inactive) | 31.4 µM (inactive) | 36.8 µM (inactive) | 73.3 µM (inactive) | 49.5 µM (inactive) |  | 19.6 µM (inactive) | 20.7 µM (inactive) | 16 µM (inactive) | 23.1 µM (inactive) | 35.2 µM (inactive) | 21.4 µM (inactive) | > 100 µM (inactive) | 57.9 µM (inactive) | 32.5 µM (inactive)
